This experiment deals with Beta2AR with a cpGFP integrated into the third intracellular loop (Homo sapiens, UniProt P07550). Conditions: saturating conditions (1 μM drug).

SMILES strings stand for the structures.

We go through one compound from patent US12459985B2, “G-protein-coupled receptor internal sensors” (THE REGENTS OF THE UNIVERSITY OF CALIFORNIA, priority 2016, dated 2025).

`CNC[C@H](O)c1ccc(O)c(O)c1` [epinephrine] came in with a τ½ON (time constant of association) of 17.1 s. The compound further gave a τ½OFF (time constant of dissociation) of 235.34 s.
